Experimental data from ChEMBL document CHEMBL1201862, “PubChem BioAssay data set” (2004).
Calls of active or inactive are those of the source. Rule as the data show it: actives have a measured IC50 and inactives only a lower limit.

Molecular target: Envelope glycoprotein gp160 (Human immunodeficiency virus 1, UniProt Q6QLK5)
Test: cell-free HIV fusion peptide-binding blockers – biochemical, uHTS, fluorescence dequenching, […] (AID 1986)

Chain of Envelope glycoprotein gp160 (Q6QLK5 whole entry, the tested form may be a part): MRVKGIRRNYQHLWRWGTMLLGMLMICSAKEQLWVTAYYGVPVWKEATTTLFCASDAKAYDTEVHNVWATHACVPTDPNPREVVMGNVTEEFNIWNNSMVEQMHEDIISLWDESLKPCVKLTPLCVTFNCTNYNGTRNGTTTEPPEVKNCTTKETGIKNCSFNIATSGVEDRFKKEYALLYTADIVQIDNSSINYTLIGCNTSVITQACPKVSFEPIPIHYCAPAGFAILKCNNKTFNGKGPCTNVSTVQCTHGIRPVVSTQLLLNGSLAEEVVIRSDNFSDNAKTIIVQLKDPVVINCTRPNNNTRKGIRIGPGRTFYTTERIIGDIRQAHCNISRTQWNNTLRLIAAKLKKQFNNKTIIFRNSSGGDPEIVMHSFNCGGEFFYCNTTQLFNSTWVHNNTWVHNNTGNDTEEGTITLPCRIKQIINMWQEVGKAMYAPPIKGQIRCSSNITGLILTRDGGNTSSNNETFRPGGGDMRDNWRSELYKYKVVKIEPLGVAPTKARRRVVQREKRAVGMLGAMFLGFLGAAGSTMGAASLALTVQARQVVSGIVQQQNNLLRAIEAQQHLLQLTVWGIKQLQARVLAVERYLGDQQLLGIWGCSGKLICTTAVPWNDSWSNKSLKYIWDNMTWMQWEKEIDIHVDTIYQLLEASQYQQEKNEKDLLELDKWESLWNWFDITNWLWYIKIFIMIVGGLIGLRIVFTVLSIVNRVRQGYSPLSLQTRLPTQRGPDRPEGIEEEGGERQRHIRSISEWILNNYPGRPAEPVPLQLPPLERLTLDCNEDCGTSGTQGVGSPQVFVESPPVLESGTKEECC

SMILES | IC50
O=C(O)c1[nH]c2ccccc2c1C(c1cccc(O)c1)c1c(C(=O)O)[nH]c2ccccc12 | 25.8 µM (active)
Cc1cccc(S(=O)(=O)Nc2nc3ccccc3nc2Nc2cccc(C(=O)O)c2)c1 | 29 µM (active)
